Some test systems named below: SK-OV-3 ovarian; SF-268 CNS; SK-MEL-5 melanoma; OVCAR-5 ovarian; RXF 393 renal; U251 CNS; OVCAR-8 ovarian; HL-60(TB) leukemia; UACC-62 melanoma; MCF7 breast.
Experiment in all cases: NCI anticancer screen, dose series, 48 h

Where “and” joins values, the source holds several entries; their conditions need not be identical. Identical values can stand only once.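 In this assay, cells in 96-well plates receive the compound at five concentrations for 48 hours. Endpoints are linearly interpolated between the surrounding concentrations. GI50 is the concentration that inhibits growth by half. At the TGI there is no net growth.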 Where only a bound is given, the exact number is not on record here.

With `COc1cccc2c1c1nc3cc(C)c(C)cc3nc1n2CCN(C)C`, the GI50 was 2.02 µM in the assay with SK-OV-3 ovarian; 2.13 µM in the assay on SF-268 CNS; 1.64 µM in the assay on SK-MEL-5 melanoma; 2.4 µM with OVCAR-5 ovarian; 1.59 µM in the assay on RXF 393 renal; 2.21 µM in the assay with U251 CNS. In addition, the GI50 with OVCAR-8 ovarian is 0.798 µM; in the assay on HL-60(TB) leukemia, 2.09 µM; in the assay on UACC-62 melanoma it was 1.7 µM; with MCF7 breast it was 2.13 µM. Moreover, the TGI was determined as 12.2 µM in the assay with SK-OV-3 ovarian; 7.45 µM with SF-268 CNS; 3.01 µM in the assay with SK-MEL-5 melanoma; 9.48 µM with OVCAR-5 ovarian; 3.54 µM in the assay on RXF 393 renal; 11.7 µM in the assay with U251 CNS. Besides, the TGI is 13.3 µM with OVCAR-8 ovarian, 6.57 µM in the assay on HL-60(TB) leukemia, 3.37 µM in the assay with UACC-62 melanoma and 10.9 µM with MCF7 breast.
As for `C/C(=C\c1c[nH]c2ccccc12)[N+](=O)[O-]`, the GI50 with SK-OV-3 ovarian is 11.4 µM; in the assay on SF-268 CNS, 4.16 µM; with SK-MEL-5 melanoma, 5.8 µM; in the assay on OVCAR-5 ovarian, 19.3 µM; with RXF 393 renal, 2.91 µM; in the assay with U251 CNS it was 2.14 µM. The GI50 with OVCAR-8 ovarian was 4.18 µM; in the assay on HL-60(TB) leukemia, 2.3 µM; with UACC-62 melanoma, 4.04 µM; in the assay on MCF7 breast, 2.67 µM. The TGI in the assay on SK-OV-3 ovarian stood at 23.7 µM; in the assay on SF-268 CNS it was 19.2 µM; in the assay on SK-MEL-5 melanoma, 19.2 µM; in the assay on OVCAR-5 ovarian, 34 µM; in the assay on RXF 393 renal, 11.5 µM; with U251 CNS it was 7.04 µM. Further, the TGI came out at 17.9 µM in the assay with OVCAR-8 ovarian, 6.46 µM in the assay on HL-60(TB) leukemia, 15.9 µM in the assay on UACC-62 melanoma and 28 µM in the assay on MCF7 breast.
For `COc1cc(-c2nc3ccccc3s2)ccc1OCc1nc2n(n1)S(=O)(=O)c1ccccc1N2C`, the GI50 in the assay on SK-OV-3 ovarian, with SF-268 CNS, in the assay on SK-MEL-5 melanoma, in the assay on OVCAR-5 ovarian, with U251 CNS and with OVCAR-8 ovarian was more than 100 µM each time. The GI50 with HL-60(TB) leukemia, in the assay on UACC-62 melanoma and in the assay on MCF7 breast was more than 100 µM throughout. The TGI with SK-OV-3 ovarian, with SF-268 CNS, in the assay on SK-MEL-5 melanoma, in the assay on OVCAR-5 ovarian, in the assay on U251 CNS and in the assay on OVCAR-8 ovarian was more than 100 µM each time. In addition, the TGI in the assay on HL-60(TB) leukemia, in the assay with UACC-62 melanoma and with MCF7 breast was more than 100 µM each time.
With `O=C1C=CC2(C=C1)CCN=c1c(O)c3c(c(O)c12)=NC=N3`, the GI50 in the assay with SK-OV-3 ovarian is 18.3 µM and > 100 µM; in the assay on OVCAR-5 ovarian, 22.4 µM and > 100 µM; in the assay with RXF 393 renal, 16.2 µM and > 100 µM; with U251 CNS, 10.6 µM and > 100 µM; in the assay on OVCAR-8 ovarian, 14 µM and > 100 µM; in the assay with HL-60(TB) leukemia it was 8.02 µM and 59.9 µM. For the same compound, in the assay on MCF7 breast, the GI50 is 11.9 µM and > 100 µM. In addition, the TGI is 33.2 µM and > 100 µM in the assay with SK-OV-3 ovarian; 26.8 µM and > 100 µM in the assay with SF-268 CNS; 37.4 µM and > 100 µM with OVCAR-5 ovarian; 30.1 µM and > 100 µM in the assay with RXF 393 renal; 24.1 µM and > 100 µM with U251 CNS; 37.3 µM and > 100 µM with OVCAR-8 ovarian. For the same compound, the TGI was more than 100 µM with HL-60(TB) leukemia; 28.7 µM and > 100 µM in the assay with MCF7 breast.
As for `C=CCN(N=O)C(=O)N(CCC)CCCCC(NC(C)=O)C(=O)NCc1ccccc1` (stereo unspecified), the TGI with SK-OV-3 ovarian, in the assay on SF-268 CNS, in the assay with SK-MEL-5 melanoma, in the assay on OVCAR-5 ovarian, with RXF 393 renal and in the assay with U251 CNS was more than 100 µM throughout. The TGI in the assay with OVCAR-8 ovarian was more than 100 µM; in the assay with HL-60(TB) leukemia, 54.4 µM; in the assay on UACC-62 melanoma, more than 100 µM.
Turning to `COC(=O)C1=CC2OC13CC1CCC3(C2=O)C1(C)C` (stereo unspecified), the TGI was 38.1 µM with SK-OV-3 ovarian; 23.2 µM in the assay with SF-268 CNS; 30.7 µM in the assay on SK-MEL-5 melanoma; 33.2 µM with OVCAR-5 ovarian; 25.8 µM in the assay with RXF 393 renal; 25.6 µM with U251 CNS. Further, the TGI in the assay with OVCAR-8 ovarian is 23.8 µM; with HL-60(TB) leukemia it was 23.1 µM; with UACC-62 melanoma, 30.6 µM.
With `CCN(CC)c1ccc2c(c1)N=C1N=CC=CN1C2(c1ccc(N(C)C)cc1)c1ccc(N(C)C)cc1`, the TGI with SK-OV-3 ovarian worked out at 19.1 µM; in the assay with SF-268 CNS, 27.3 µM; in the assay with SK-MEL-5 melanoma, 26.7 µM; with OVCAR-5 ovarian, 27.4 µM; with RXF 393 renal, 23.2 µM; with U251 CNS, 16 µM. Besides, the TGI was 17.5 µM in the assay on OVCAR-8 ovarian, 3.3 µM in the assay with HL-60(TB) leukemia and 24.1 µM in the assay on UACC-62 melanoma.
Take `COC(=O)c1c2c(c(C)[n+]([O-])c1C)C(=O)C(NCc1ccc(F)c(F)c1)=CC2=O`: the GI50 in the assay on SF-268 CNS is 2.31 µM; in the assay on SK-MEL-5 melanoma, 1.14 µM; in the assay on OVCAR-5 ovarian, 2.5 µM; with RXF 393 renal it was 2.15 µM; with U251 CNS, 2.06 µM; in the assay on OVCAR-8 ovarian, 1.96 µM. Also, the GI50 is 1.86 µM in the assay on HL-60(TB) leukemia, 1.53 µM in the assay with UACC-62 melanoma and 1.48 µM in the assay with MCF7 breast. In addition, the TGI in the assay on SF-268 CNS was found to be 7.47 µM; with SK-MEL-5 melanoma, 2.38 µM; in the assay on OVCAR-5 ovarian, 6.59 µM; with RXF 393 renal it was 5.96 µM; with U251 CNS, 5.85 µM; in the assay on OVCAR-8 ovarian, 7.97 µM. The TGI in the assay on HL-60(TB) leukemia stood at 4.4 µM; in the assay with UACC-62 melanoma, 3.35 µM; in the assay on MCF7 breast it was 3.36 µM.
For `CCN(CC)CCOc1cc2c(C(=O)OC)c(C)oc2cc1C(C)=O`, the GI50 in the assay on SK-OV-3 ovarian was 14.7 µM; in the assay on SF-268 CNS, 13.6 µM; in the assay on SK-MEL-5 melanoma, 6.62 µM; in the assay on OVCAR-5 ovarian, 15.4 µM; in the assay on RXF 393 renal it was 17.9 µM; in the assay on U251 CNS, 2.75 µM. In addition, the GI50 is 13.4 µM in the assay on OVCAR-8 ovarian, 9.4 µM in the assay on UACC-62 melanoma and 22.8 µM with MCF7 breast. For the same compound, the TGI was found to be 30.2 µM in the assay with SK-OV-3 ovarian; 32.6 µM in the assay with SF-268 CNS; 19 µM in the assay on SK-MEL-5 melanoma; 29.1 µM in the assay with OVCAR-5 ovarian; 41 µM in the assay on RXF 393 renal; 10.7 µM in the assay with U251 CNS. Further, the values for the TGI with OVCAR-8 ovarian, in the assay on UACC-62 melanoma and in the assay with MCF7 breast were 30.3 µM, 21.5 µM and 45.2 µM, respectively.

The values are drawn from PubChem BioAssay (NCI).
